Results reported in PMC10433430, “The transport of mannitol in Sinorhizobium meliloti is carried out by a broad-substrate polyol transporter SmoEFGK and is affected by the ability to transport and metabolize fructose” (Microbiology, 2023).
Blank lines part the entries; values can stand above or below the compound they belong to.

Key:
SmoEFGK [1] = target: T1, SmoEFGK (Sinorhizobium meliloti, UniProt Q92N02); test: […]-mannitol uptake competition, intact cells; type: cell-based; conditions: 2 µM 14C-mannitol as tracer, mannitol-grown wild-type Rm1021
T1 construct: gene smoE; native ABC transporter in intact S. meliloti Rm1021 cells grown on mannitol; smoK::Tn5-B20 mutant as control; with ABC transporter, sorbitol/mannitol permease SmoF; ABC transporter, sorbitol/mannitol permease SmoG
T1 sequence (Q92N03 entry or part of it): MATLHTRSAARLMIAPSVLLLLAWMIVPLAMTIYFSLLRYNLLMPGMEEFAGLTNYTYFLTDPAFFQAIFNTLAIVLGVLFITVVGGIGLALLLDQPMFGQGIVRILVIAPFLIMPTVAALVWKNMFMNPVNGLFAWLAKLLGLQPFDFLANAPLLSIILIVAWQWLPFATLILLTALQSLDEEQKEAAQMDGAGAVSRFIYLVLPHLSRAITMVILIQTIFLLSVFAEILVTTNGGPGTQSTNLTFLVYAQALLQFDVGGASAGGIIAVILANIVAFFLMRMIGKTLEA
T1 sequence (Q92N04 entry or part of it, further chain): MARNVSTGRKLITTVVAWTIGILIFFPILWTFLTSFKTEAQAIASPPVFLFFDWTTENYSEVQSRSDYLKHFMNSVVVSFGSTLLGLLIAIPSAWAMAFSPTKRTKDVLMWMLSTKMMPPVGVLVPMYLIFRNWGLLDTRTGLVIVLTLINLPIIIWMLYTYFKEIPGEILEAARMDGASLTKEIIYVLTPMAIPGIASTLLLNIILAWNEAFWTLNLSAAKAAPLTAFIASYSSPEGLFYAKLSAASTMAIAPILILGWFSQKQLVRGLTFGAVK
T1 sequence (Q92N02 entry or part of it): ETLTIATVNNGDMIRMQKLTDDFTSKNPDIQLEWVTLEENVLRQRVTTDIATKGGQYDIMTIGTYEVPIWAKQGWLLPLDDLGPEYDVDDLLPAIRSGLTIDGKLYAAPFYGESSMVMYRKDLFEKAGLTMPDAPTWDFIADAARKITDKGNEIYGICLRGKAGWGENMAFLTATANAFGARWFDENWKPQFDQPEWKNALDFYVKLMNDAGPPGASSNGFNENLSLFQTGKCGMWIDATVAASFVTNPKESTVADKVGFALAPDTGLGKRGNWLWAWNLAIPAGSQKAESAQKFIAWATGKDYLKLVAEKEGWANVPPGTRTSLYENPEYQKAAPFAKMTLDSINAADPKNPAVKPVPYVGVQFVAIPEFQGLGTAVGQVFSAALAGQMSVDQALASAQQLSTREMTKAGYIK
T1 sequence (Q92N05 entry or part of it, further chain): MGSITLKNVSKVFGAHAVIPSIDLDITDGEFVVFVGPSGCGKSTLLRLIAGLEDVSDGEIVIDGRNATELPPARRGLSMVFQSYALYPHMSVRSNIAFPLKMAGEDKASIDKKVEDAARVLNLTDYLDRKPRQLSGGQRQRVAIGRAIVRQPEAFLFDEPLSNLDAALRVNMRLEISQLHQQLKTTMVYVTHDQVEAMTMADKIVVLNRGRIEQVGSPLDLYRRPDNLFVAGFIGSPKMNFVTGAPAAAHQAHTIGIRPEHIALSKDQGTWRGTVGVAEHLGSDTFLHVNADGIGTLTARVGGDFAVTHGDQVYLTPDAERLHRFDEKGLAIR

MtlK = target: T2, MtlK (Sinorhizobium meliloti, UniProt Q92N07); test: in-gel dehydrogenase activity stain, native PAGE; type: biochemical; conditions: NAD+, phenazine methosulfate, nitro blue tetrazolium; cell extract
T2 construct: full length from plasmid pJD02 (mtlK/pCO37) in S. meliloti smoS mutant; cell extract, native gel
T2 sequence (Q92N07 entry or part of it): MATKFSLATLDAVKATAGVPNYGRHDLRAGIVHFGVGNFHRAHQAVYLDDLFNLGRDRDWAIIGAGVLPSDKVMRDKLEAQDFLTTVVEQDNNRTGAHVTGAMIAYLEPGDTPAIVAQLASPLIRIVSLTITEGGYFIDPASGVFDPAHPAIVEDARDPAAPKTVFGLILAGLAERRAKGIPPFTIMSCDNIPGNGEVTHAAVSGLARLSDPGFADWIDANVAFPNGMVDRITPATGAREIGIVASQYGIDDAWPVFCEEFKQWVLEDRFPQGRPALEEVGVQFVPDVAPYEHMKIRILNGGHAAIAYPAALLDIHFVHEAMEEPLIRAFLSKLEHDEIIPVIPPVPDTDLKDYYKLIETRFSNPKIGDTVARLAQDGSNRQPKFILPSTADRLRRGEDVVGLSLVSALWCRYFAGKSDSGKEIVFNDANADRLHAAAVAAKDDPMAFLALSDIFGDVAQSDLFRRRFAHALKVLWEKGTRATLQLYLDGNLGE

SmoS = target: T3, SmoS (Sinorhizobium meliloti, UniProt Q92N06); test: in-gel dehydrogenase activity stain, native PAGE; type: biochemical; conditions: sorbitol as substrate, phenazine methosulfate, nitro blue tetrazolium; cell extract
T3 construct: full length from plasmid pSMc01500 (smoS/pCO37) in S. meliloti smoS mutant; cell extract, native gel
T3 sequence (Q92N06 entry or part of it): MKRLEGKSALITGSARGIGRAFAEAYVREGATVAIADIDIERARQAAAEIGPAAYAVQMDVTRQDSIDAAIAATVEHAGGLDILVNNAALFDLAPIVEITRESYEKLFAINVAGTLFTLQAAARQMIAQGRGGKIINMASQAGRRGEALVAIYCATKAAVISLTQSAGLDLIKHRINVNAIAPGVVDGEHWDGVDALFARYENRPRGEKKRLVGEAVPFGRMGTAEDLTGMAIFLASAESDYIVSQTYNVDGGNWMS

Frk = target: T4, Frk (Sinorhizobium meliloti, UniProt Q92SC5); test: PK/LDH-coupled kinase assay, […] nm; type: biochemical; conditions: 6 mM fructose, 3 mM ATP, 6 mM MgCl2, HEPES pH 7.5; partially purified
T4 construct: N-terminal 6xHis tag, expressed from pMK48 (pRK7813) in S. meliloti Rm1021, partially purified on Ni-NTA
T4 sequence (Q92SC5 1-308): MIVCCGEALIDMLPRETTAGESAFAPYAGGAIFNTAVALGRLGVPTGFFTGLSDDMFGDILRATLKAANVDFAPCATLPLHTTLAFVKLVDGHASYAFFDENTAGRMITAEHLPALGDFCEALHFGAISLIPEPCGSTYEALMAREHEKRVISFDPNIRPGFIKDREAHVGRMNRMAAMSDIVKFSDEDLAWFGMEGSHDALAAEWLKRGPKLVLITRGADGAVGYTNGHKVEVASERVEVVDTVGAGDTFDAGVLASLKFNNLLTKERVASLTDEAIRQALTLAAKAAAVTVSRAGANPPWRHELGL

SmoEFGK [2] = target: T1, SmoEFGK; test: […]-mannitol uptake competition, intact cells; type: cell-based; conditions: 2 µM 14C-mannitol as tracer, 10 µM unlabelled maltitol; mannitol-grown wild-type Rm1021
SmoEFGK [3] = target: T1, SmoEFGK; test: […]-mannitol uptake, wild type against smoK mutant; type: cell-based; conditions: labelled compound, 2 µM; cells grown in mannitol and glucose

% reduction of uptake at 2 μM (SmoEFGK [1]; 2 µM unlabelled D-arabitol): ~ 50%
Structure (SMILES): OC[C@@H](O)C(O)[C@H](O)CO [D-arabitol]
in-gel dehydrogenase activity stain, native PAGE (MtlK): if D-arabitol was used as a substrate, bands that are coincident with what mannitol result

Structure (SMILES): NC(=O)c1ccc[n+]([C@@H]2O[C@H](COP(=O)(O)OP(=O)(O)OC[C@H]3O[C@@H](n4cnc5c(N)ncnc54)[C@H](O)[C@@H]3O)[C@@H](O)[C@H]2O)c1 [NAD^+]
in-gel dehydrogenase activity stain, native PAGE (SmoS): smoS encodes an NAD^+-dependent sorbitol and galactitol dehydrogenase

Structure (SMILES): OCC1(O)OC[C@@H](O)[C@@H](O)[C@@H]1O (stereo partly shown) [fructose]
PK/LDH-coupled kinase assay, 340 nm (Frk): partially purified Frk was assayed for kinase activity using fructose as a substrate

% reduction of uptake at 10 μM (SmoEFGK [2]): > 50%
Structure (SMILES): OC[C@@H](O)[C@@H](O[C@H]1O[C@H](CO)[C@@H](O)[C@H](O)[C@H]1O)[C@H](O)[C@@H](O)CO [maltitol]

Structure (SMILES): OC[C@@H](O)[C@@H](O)[C@H](O)[C@H](O)CO [mannitol]
14C-mannitol uptake, wild type against smoK mutant (SmoEFGK [3]): SRmD495 cells were severely compromised in their ability to transport mannitol

Structure (SMILES): OC[C@@H](O)[C@@H](O)[C@H](O)[C@@H](O)CO [sorbitol]
% reduction of uptake at 2 μM (SmoEFGK [1]; 2 µM unlabelled sorbitol): ~ 50%
